Measured values as given in US8173797B2 (Cornell Research Foundation, Inc., priority 2004, dated 2012).

Experiment: solubility in aprotic NMR solvents
Assay type: physicochemical

CC1OC(OC2C(O)C(C)OC(OC3C(COS(=O)(=O)O)OC(n4cnc5c(=O)[nH]c(N)nc54)C3O)C2O)C(O)C(O)C1O (stereo not shown) [Compound 2]
solubility: quite insoluble
